Like-named read-outs stand apart in the source and are kept apart here.
Assays:
Type in all cases: biochemical
[1] = target: MMP-13 (Homo sapiens, UniProt P45452); assay: MMP-13 inhibition (thiopeptide or fluorescent peptide substrate); settings: read-out: MMP-13 IC50
[2] = target: TNF-α converting enzyme (TACE) (Homo sapiens, UniProt P78536); assay: TACE inhibition (fluorescent peptidyl substrate)
[3] = target: T1, MMP-1 (Homo sapiens, UniProt P03956); assay: MMP-1 inhibition (thiopeptide or fluorescent peptide substrate)
T1 sequence (P03956 100-469): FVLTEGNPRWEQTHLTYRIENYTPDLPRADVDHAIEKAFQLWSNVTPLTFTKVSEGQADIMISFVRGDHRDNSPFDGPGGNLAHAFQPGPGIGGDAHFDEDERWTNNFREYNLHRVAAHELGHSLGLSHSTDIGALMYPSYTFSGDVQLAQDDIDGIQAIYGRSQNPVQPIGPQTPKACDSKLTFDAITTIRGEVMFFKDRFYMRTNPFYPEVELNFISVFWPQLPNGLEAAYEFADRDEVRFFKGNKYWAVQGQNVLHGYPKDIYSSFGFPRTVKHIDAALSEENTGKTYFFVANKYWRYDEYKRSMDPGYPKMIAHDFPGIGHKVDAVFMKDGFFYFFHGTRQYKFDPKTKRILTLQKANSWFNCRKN
Method: The enzyme activity is measured by the rate of the color increase. The thiopeptide substrate is made up fresh as a 20 mM stock in 100% DMSO and the DTNB is dissolved in 100% DMSO as a 100 mM stock and stored in the dark at room temperature. Both the substrate and DTNB are diluted together to 1 mM with substrate buffer (50 mM HEPES pH 7.5, 5 mM CaCl2) before use. The stock of enzyme is diluted with buffer (50 mM HEPES, pH 7.5, 5 mM CaCl2, 0.02% Brij) to the desired final concentration.
Alternatively, a fluorescent peptide substrate is used. In this test procedure, the peptide substrate contains a fluorescent group and a quenching group. Upon cleavage of the substrate by an MMP, the fluorescence that is generated is quantitated on the fluorescence plate reader. The assay is run in HCBC assay buffer (50 mM HEPES, pH 7.0, 5 mM Ca^+2, 0.02% Brij, 0.5% Cysteine), with human recombinant MMP-1, MMP-9, or MMP-13. […] For the assay, substrate and enzymes are diluted in HCBC buffer to the desired concentrations. Compounds are added to the 96 well plate containing enzyme and the reaction is started by the addition of substrate.
For either the thiopeptide or fluorescent peptide test procedures, the slope of the line is calculated and represents the reaction rate. The linearity of the reaction rate is confirmed (r^2>0.85). The mean (x±sem) of the control rate is calculated and compared for statistical significance (p<0.05) with drug-treated rates using Dunnett's multiple comparison test.

Chain of TNF-α converting enzyme (TACE) (P78536 215-824, species assumed): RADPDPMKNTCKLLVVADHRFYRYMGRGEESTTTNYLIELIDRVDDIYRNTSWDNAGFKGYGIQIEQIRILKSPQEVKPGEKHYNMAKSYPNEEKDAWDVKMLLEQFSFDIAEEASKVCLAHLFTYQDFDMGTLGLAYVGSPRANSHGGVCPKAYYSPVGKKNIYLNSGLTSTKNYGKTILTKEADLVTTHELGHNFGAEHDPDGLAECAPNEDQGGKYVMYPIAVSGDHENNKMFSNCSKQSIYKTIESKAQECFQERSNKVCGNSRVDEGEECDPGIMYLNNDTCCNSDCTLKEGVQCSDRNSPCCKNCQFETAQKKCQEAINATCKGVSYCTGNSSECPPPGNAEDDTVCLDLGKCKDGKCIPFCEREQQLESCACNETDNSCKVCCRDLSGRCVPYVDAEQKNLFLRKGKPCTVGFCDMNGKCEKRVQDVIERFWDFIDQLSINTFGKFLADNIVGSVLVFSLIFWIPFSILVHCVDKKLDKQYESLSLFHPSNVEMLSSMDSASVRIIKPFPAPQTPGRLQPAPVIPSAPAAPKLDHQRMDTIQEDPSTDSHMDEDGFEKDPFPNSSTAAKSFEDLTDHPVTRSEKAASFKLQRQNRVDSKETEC

Q: Which results are given for `CC#CCOc1ccc(S(=O)(=O)N(C)C(C(=O)NO)C(C)C)cc1` (stereo not drawn) [Example 9, 2-[(4-but-2-ynyloxy-Benzenesulfonyl)-methyl-amino]-N-hydroxy-3-methyl-butyramide]?
A: IC50 [1]: 4.5 nM; IC50 ([2]; read-out: TACE IC50): 7.4 nM; IC50 ([3]; read-out: MMP-1 IC50): 40 nM

Q: `CC#CCOc1ccc(S(=O)(=O)N(C)C(CSCc2cccnc2)C(=O)NO)cc1` (stereo not drawn) [Example 155, 2-[(4-but-2-ynyloxy-Benenesulfonyl)-methyl-amino]-N-hydroxy-3-(pyridin-3-ylmethylsulfanyl)-butyramide] was tested. Which IC50 [1] did it give?
A: 4.8 nM

Q: For `CC#CCOc1ccc(S(=O)(=O)N2CCCSC(C)(C)[C@@H]2C(=O)NO)cc1` [Example 173], which IC50 [1] is on record?
A: 16 nM

Q: What about the IC50 ([2]; read-out: TACE IC50) of the same molecule?
A: 111 nM

Q: And the IC50 ([3]; read-out: MMP-1 IC50)?
A: 20 nM

Q: Which results are given for `CC#CCOc1ccc(S(=O)(=O)N2CCCSC[C@@H]2C(=O)NO)cc1` [Example 174]?
A: IC50 [1]: 36 nM; IC50 ([2]; read-out: TACE IC50): 20 nM; IC50 ([3]; read-out: MMP-1 IC50): 408 nM

Q: With `CC#CCOc1ccc(S(=O)(=O)N2CCCS(=O)(=O)C[C@@H]2C(=O)NO)cc1` [Example 175] as the molecule, how does the IC50 [1] read?
A: 50 nM

Q: What about the IC50 ([2]; read-out: TACE IC50) of the same molecule?
A: 28 nM

Q: And the IC50 ([3]; read-out: MMP-1 IC50)?
A: 1030 nM

Q: `CC#CCOc1ccc(S(=O)(=O)NC(C(=O)NO)c2ccc(OCCNC)cc2)cc1` (stereo not drawn) [Example 204] was tested. Which IC50 ([3]; MMP-1 IC50) did it give?
A: ~10000 nM

Q: How did the IC50 [1] turn out when `CC#CCOc1ccc(S(=O)(=O)NC(C(=O)NO)c2ccc(OCCN3CCCC3)cc2)cc1` (stereo not drawn) [Example 205, 2-({[4-(2-Butynyloxy)phenyl]sulfonyl}amino)-N-hydroxy-2-{4-[2-(1-pyrrolidinyl)ethoxy]phenyl}acetamide] was run?
A: 146 nM

Q: What about the IC50 ([2]; read-out: TACE IC50) of the same molecule?
A: 24 nM

Q: And the IC50 ([3]; read-out: MMP-1 IC50)?
A: ~10000 nM

Q: With `CC#CCOc1ccc(S(=O)(=O)NC(C(=O)NO)c2ccc(OCCN(C)C)cc2)cc1` (stereo not drawn) [Example 207, 2-({[4-(2-Butynyloxy)phenyl]sulfonyl}amino){4-[2-(dimethylamino)ethoxy]phenyl}-N-hydroxyacetamide] as the molecule, how does the IC50 [1] read?
A: 112 nM

Q: What about the IC50 ([2]; read-out: TACE IC50) of the same molecule?
A: 53 nM

Q: And the IC50 ([3]; read-out: MMP-1 IC50)?
A: > 10000 nM

Q: What does the source list for `CC#CCOc1ccc(S(=O)(=O)NC(C(=O)NO)c2ccc(OCCc3scnc3C)cc2)cc1` (stereo not drawn) [Example 208, 2-({[4-(2-Butynyloxy)phenyl]sulfonyl}amino)-N-hydroxy-2-{4-[2-(4-methyl-1,3-thiazol-5-yl)ethoxy]phenyl}acetamide]?
A: IC50 [1]: 230 nM; IC50 ([2]; read-out: TACE IC50): 69 nM; IC50 ([3]; read-out: MMP-1 IC50): > 10000 nM

Q: What does the source list for `CC#CCOc1ccc(S(=O)(=O)NC(C(=O)NO)c2ccc(OCCOCCOCCOC)cc2)cc1` (stereo not drawn) [Example 209, 2-({[4-(2-Butynyloxy)phenyl]sulfonyl}amino)-N-hydroxy-2-(4-{2-[2-(2-methoxyethoxy)ethoxy]ethoxy}phenyl)acetamide]?
A: IC50 [1]: 132 nM; IC50 ([2]; read-out: TACE IC50): 39 nM; IC50 ([3]; read-out: MMP-1 IC50): ~10000 nM

Q: What does the source list for `CC#CCOc1ccc(S(=O)(=O)NC(C(=O)NO)c2ccc(OCCOCCOC)cc2)cc1` (stereo not drawn) [Example 210, 2-({[4-(2-Butynyloxy)phenyl]sulfonyl}amino)-N-hydroxy-2-{4-[2-(2-methoxyethoxy)ethoxy]phenyl}acetamide]?
A: IC50 [1]: 278 nM; IC50 ([2]; read-out: TACE IC50): 17 nM; IC50 ([3]; read-out: MMP-1 IC50): > 10000 nM

Q: With `CC#CCOc1ccc(S(=O)(=O)N2CCSC3(CCN(Cc4ccccc4)CC3)C2C(=O)NO)cc1` (stereo not drawn) [Example 241, 9-Benzyl-4-{[4-(2-butynyloxy)phenyl]sulfonyl}-N-hydroxy-1-thia-4,9-diazaspiro[5.5]undecane-5-carboxamide] as the molecule, how does the IC50 ([1]; Table 9) read?
A: 0.5 nM

Q: And the IC50 ([2]; Table 9, read-out: TACE IC50)?
A: 786 nM

Q: And the IC50 ([3]; Table 9, read-out: MMP-1 IC50)?
A: 3.1 nM

Q: What does the source list for `CC(C)(C)OC(=O)NCCCCC#CCOc1ccc(S(=O)(=O)N2CCSC(C)(C)[C@@H]2C(=O)NO)cc1` [Example 252, tert-Butyl 7-[4-({(3S)-3-[(Hydroxyamino)carbonyl]-2,2-dimethylthiomorpholinyl}sulfonyl)phenoxy]-5-heptynylcarbamate]?
A: IC50 ([1]; Table 10): 4.3 nM; IC50 ([2]; Table 10, read-out: TACE IC50): 199 nM; IC50 ([3]; Table 10, read-out: MMP-1 IC50): 87 nM

Q: With `CC1(C)SCCN(S(=O)(=O)c2ccc(OCC#CCCCCN)cc2)[C@H]1C(=O)NO` [Example 253] as the molecule, how does the IC50 ([1]; Table 10) read?
A: 7.3 nM

Q: What about the IC50 ([2]; Table 10, read-out: TACE IC50) of the same molecule?
A: 40 nM

Q: What about the IC50 ([3]; Table 10, read-out: MMP-1 IC50) of the same molecule?
A: 92 nM

Q: What does the source list for `CC1(C)SCCN(S(=O)(=O)c2ccc(OCC#Cc3ccccc3)cc2)[C@H]1C(=O)NO` [Example 254, (3S)-N-Hydroxy-2,2-dimethyl-4-({4-[(3-phenyl-2-propynyl)oxy]phenyl}sulfonyl)-3-thiomorpholine Carboxamide]?
A: IC50 ([1]; Table 10): 11 nM; IC50 ([2]; Table 10, read-out: TACE IC50): 173 nM; IC50 ([3]; Table 10, read-out: MMP-1 IC50): 13 nM

Q: For `C#CCOc1ccc(S(=O)(=O)N2CCSC(C)(C)[C@@H]2C(=O)NO)cc1` [Example 258, (3S)-N-Hydroxy-2,2-dimethyl-4-{[4-(2-propynyloxy)phenyl]sulfonyl}-3-thiomorpholine Carboxamide], which IC50 ([1]; Table 9) is on record?
A: 0.8 nM

Q: What about the IC50 ([2]; Table 9, read-out: TACE IC50) of the same molecule?
A: 19 nM

Q: And the IC50 ([3]; Table 9, read-out: MMP-1 IC50)?
A: 0.6 nM

Q: Which results are given for `CCC#CCOc1ccc(S(=O)(=O)N2CCSC(C)(C)[C@@H]2C(=O)NO)cc1` [Example 259, (3S)-N-Hydroxy-2,2-dimethyl-4-{[4-(2-pentynyloxy)phenyl]sulfonyl}-3-thiomorpholine Carboxamide]?
A: IC50 ([1]; Table 9): 5 nM; IC50 ([2]; Table 9, read-out: TACE IC50): 28 nM; IC50 ([3]; Table 9, read-out: MMP-1 IC50): 5.9 nM

Q: For `CC(=O)OCC#CCOc1ccc(S(=O)(=O)N2CCSC(C)(C)[C@@H]2C(=O)NO)cc1` [Example 261, 4-[4-({(3S3-[(Hydroxyamino)carbonyl]-2,2-dimethylthiomorpholinyl}sulfonyl)phenoxy]-2-butynyl Acetate], which IC50 ([1]; Table 10) is on record?
A: 1.1 nM

Q: What about the IC50 ([2]; Table 10, read-out: TACE IC50) of the same molecule?
A: 45 nM

Q: What about the IC50 ([3]; Table 10, read-out: MMP-1 IC50) of the same molecule?
A: 103 nM

Q: How did the IC50 ([1]; Table 10) turn out when `CC1(C)SCCN(S(=O)(=O)c2ccc(OCC#CC#CCO)cc2)[C@H]1C(=O)NO` [Example 262, (3S)-N-Hydroxy-4-({4-[(6-hydroxy-2,4-hexadiynyl)oxy]phenyl}sulfonyl)-2,2-dimethyl-3-thiomorpholine Carboxamide] was run?
A: 14 nM

Q: What about the IC50 ([2]; Table 10, read-out: TACE IC50) of the same molecule?
A: 39 nM

Q: And the IC50 ([3]; Table 10, read-out: MMP-1 IC50)?
A: 9.9 nM

Q: For `C#CC#CCOc1ccc(S(=O)(=O)N2CCSC(C)(C)[C@@H]2C(=O)NO)cc1` [Example 263], which IC50 ([1]; Table 10) is on record?
A: 11 nM

Q: And the IC50 ([2]; Table 10, read-out: TACE IC50)?
A: 42 nM

Q: What about the IC50 ([3]; Table 10, read-out: MMP-1 IC50) of the same molecule?
A: 5.7 nM

Q: Which results are given for `CC1(C)SCCN(S(=O)(=O)c2ccc(OCC#CCF)cc2)[C@H]1C(=O)NO` [Example 264, (3S)-4-({4-[(4-Fluoro-2-butynyl)oxy]phenyl}sulfonyl)-N-hydroxy-2,2-dimethyl-3-thiomorpholine Carboxamide]?
A: IC50 ([1]; Table 10): 2.5 nM; IC50 ([2]; Table 10, read-out: TACE IC50): 35 nM; IC50 ([3]; Table 10, read-out: MMP-1 IC50): 11 nM

Q: How did the IC50 ([1]; Table 10) turn out when `CC(=O)OCCCCC#CCOc1ccc(S(=O)(=O)N2CCSC(C)(C)[C@@H]2C(=O)NO)cc1` [Example 268, 7-[4-({(3S)-3-[(Hydroxyamino)carbonyl]-2,2-dimethylthiomorpholinyl}sulfonyl)phenoxy]-5-heptynyl Acetate] was run?
A: 2.9 nM

Q: What about the IC50 ([2]; Table 10, read-out: TACE IC50) of the same molecule?
A: 78 nM

Q: And the IC50 ([3]; Table 10, read-out: MMP-1 IC50)?
A: 29 nM

Q: For `CC#CCOc1ccc(S(=O)(=O)N2CCN(C(=O)OC(C)(C)C)CCC2C(=O)NO)cc1` (stereo not drawn) [Example 291, tert-Butyl 4-{[4-(2-Butynyloxy)phenyl]sulfonyl}-5[(hydroxyamino)carbonyl]-1,4-diazepane-1-carboxylate], which IC50 ([2]; read-out: TACE IC50) is on record?
A: 74 nM

Q: What about the IC50 ([3]; read-out: MMP-1 IC50) of the same molecule?
A: 92 nM

Q: How did the IC50 ([2]; IC 50 nM (In Vitro Inhibition of TACE), Table 15) turn out when `CC#CCOc1ccc(S(=O)(=O)N[C@H](CCCNC(=O)CNCc2ccccc2)C(=O)NO)cc1` [Example 378, (2R)-5-{[2-(Benzylamino)acetyl]amino}-2-({[4-(but-2-ynyloxy)phenyl]sulfonyl}amino)-N-hydroxypentanamide] was run?
A: 22.8 nM

Q: Which IC50 ([2]; read-out: IC 50 nM (In Vitro Inhibition of TACE), Table 15) does the source give for “(2R)-2-({[4-(But-2-ynyloxy)phenyl]sulfonyl}amino)-5-{[2-(3,4-dichlorophenyl)acetyl]amino}-N-hydroxypentanamide [Example 336]” here?
A: 6.11 nM

— patent publication US6716833B2, “Acetylenic α-amino acid-based sulfonamide hydroxamic acid tace inhibitors” (priority 1999, dated 2004)
